The format of data set [1] is in vivo, NSG male mouse. To be noted: for preferential tumor localization compared to lung: single injection.
The conditions of data set [2]: single injection at 10 mg/kg; non-radioactive version; cited from earlier work.
For data set [3] the following is noted: cited from earlier work.
The mark [4] stands for this setting: single i.p. injection 20 nmol per animal, 24 hours.
The mark [5] stands for this setting: single i.p. injection 20 nmol, 7 days.

Results on four compounds are retold here after paper PMC4134956 (Bioorganic & medicinal chemistry, 2014).

Consider `CC(=O)N[C@H](CCNC(=O)c1cc(NC(=O)c2cc(NC(=O)c3cc(NC(=O)c4nccn4C)cn3C)cn2C)cn1C)C(=O)Nc1cn(C)c(C(=O)Nc2cc(C(=O)Nc3cc(C(=O)Nc4cc(C(=O)NCCCN(C)CCCN[14C](=O)c5cccc([14C](=O)O)c5)n(C)c4)n(C)c3)n(C)c2)n1` [compound 1, ImPyPyPy-(R)^α-NHAcγ-ImPyPyPy], for which the “mean tumor concentration, multiple injection experiment” value in data set [1] (3 injections days 1, 4, 7, 20 nmol i.p. each, harvest 24 h after last) is 3.49 mg/kg. For the same compound, in data set [1] (3 injections over 7 days), the “accumulation upon repeated injection in tumor and organs assessed” value is reported as “Some twofold accumulation”. In data set [1] (4 hour time point), the “enrichment in the tumor over all host tissues probed” value is listed as “some two-fold enrichment”. Further, the “liver concentration lower than that in tumors” value in data set [1] (24 hours, p < 0.01) was 29%. Further, the “preferential tumor localization compared to lung” value in data set [1] (24 hours) is given as “up to 12 fold”. This compound yielded a mean tumor-associated concentration in data set [1] (LNCaP tumor, single i.p. injection 20 nmol per animal, harvest 24 hours) of 1.48 mg/kg. For the same compound, the lung concentration in data set [1] (setting [4]) was 0.12 mg/kg. Moreover, in data set [1] (setting [5]), the kidney tissue level is listed as 0.05 mg/kg, the lung tissue level is recorded as 0.06 mg/kg and the tumor tissue level is 0.45 mg/kg. For the same compound, the liver toxicity entry in data set [2] is on record as “not 1”.
With `C[14C](=O)N[C@H](CCNC(=O)c1cc(NC(=O)c2cc(NC(=O)c3cc(NC(=O)c4nccn4C)cn3C)cn2C)cn1C)C(=O)Nc1cn(C)c(C(=O)Nc2cc(C(=O)Nc3cc(C(=O)Nc4cc(C(=O)NCCCN(C)CCCNC(=O)c5cccc(C(=O)O)c5)n(C)c4)n(C)c3)n(C)c2)n1` [compound 2], the “mean tumor and host tissue values compared with compound 1” value in data set [1] (24 hours, differently placed C-14 label) was “within experimental error”. For the same compound, the “preferential tumor localization compared to lung” value in data set [1] (24 hours) was “up to 12 fold”.
Take `CN(CCCNC(=O)c1cc(NC(=O)c2cc(NC(=O)c3cc(NC(=O)c4nc(NC(=O)[C@H](N)CCNC(=O)c5cc(NC(=O)c6cc(NC(=O)c7cc(NC(=O)c8nccn8C)cn7C)cn6C)cn5C)cn4C)cn3C)cn2C)cn1C)CCCN[14C](=O)c1cccc([14C](=O)O)c1` [compound 3]: in data set [1] (24 hours), the “lung levels relative to compound 1” value is recorded as “almost eightfold higher” and the “tumor-associated levels compared with compound 1” value is given as “within error”. In addition, the “host tissue levels compared with compound 1” value in data set [1] (24 hours, kidney, liver, lung) is “substantially higher levels”. In data set [1] (setting [4]), this compound registered a lung concentration of 0.93 mg/kg. Further, in data set [2], the liver toxicity entry was “resulted in liver toxicity”.
As for `COc1cccc2c1C(=O)c1c(O)c3c(c(O)c1C2=O)C[C@@](O)(C(=O)CO)C[C@@H]3O[C@H]1C[C@H](N)[C@H](O)[C@H](C)O1` [doxorubicin], in data set [3] (2 hour timepoint), the “liver levels higher than MCF7 xenograft levels” value was roughly 2 fold. Further, the tumor localization value result in data set [3] (MCF7 xenograft, i.p. 1.6 mg/kg, up to 24 hours after single injection) is “about 1 mg/kg”.
